The text below walks through data of paper PMC11267380, “USP25 Elevates SHLD2‐Mediated DNA Double‐Strand Break Repair and Regulates Chemoresponse in Cancer” (Advanced Science, 2024).

What all share (assay type): cell-based
Assay [1] deals with USP25-MDC1 interaction. In words: Co-IP of USP25-MDC1 interaction after DNA damage. Conditions: 5-Fu (20 uM), HEK293T and RKO.
Experimental: USP25 was immunoprecipitated and immunoblotted with p‐SQ/TQ. d) USP25 knockdowm U2OS cells rescued with USP25WT or USP25T523A were treated with IR (2 Gy), and co‐localization USP25 with γH2AX was detected by immunofluorescence. n>80 in each group. e) HEK293T cells were left untreated or treated with 5‐Fu (20 uM). MDC1 was immunoprecipitated and immunoblotted with USP25. f) HEK293T cells transfected with USP25 were treated with 5‐Fu (20 uM), and cell lysates were incubated with GST or GST‐MDC1 deletions in vitro. […] The interaction USP25 and MDC1‐BRCT was detected. h) Non‐phosphorylated or phosphorylated Thr523 peptide was conjugated to beads and incubated with purified GST‐MDC1‐BRCT domain in buffer.
Flag was immunoprecipitated and immunoblotted with indicated antibodies. c-d) RKO cells were left untreated or treated with 5-Fu (20uM)(c) or IR(10Gy)(d). […] The interaction USP25 and MDC1-BRCT was detected.
The subject of assay [2] is RKO and SW620 cells. In words: CCK8 survival assay, USP25 knockdown USP25-high colon cancer cells. Conditions: RKO: cisplatin (0, 0.5, 1, 3 µM), 5-Fu (0, 0.1, 0.5, 1, 3 µM), SW620: 5-Fu (0, 0.1, 0.5, 1, 3 µM), 72 h. Here is the method: For long-term proliferation, cells were seeded in triplicate in each well of 96-well plates at a density of 1000 cells per well. After 24 h of culture, the cells were treated with the indicated doses of regents or peptides and incubated at 37 °C for 72 h. Subsequently, the medium was changed to a fresh medium containing cell counting kit-8 solution (Dojindo, CK04), and the cells were placed in the incubator for an additional 1-2 h. […] a) The mRNA expression levels of TRIM25, HECTD3, NEDD4L and WWP2 in human normal colon tissue samples (n=41) and colorectal adenocarcinoma tissue samples (n=286 COAD patients) from the Ualcan database were analyzed. b) The protein expression levels of USP25 were measured in HEK293T cells that stably expressed TRIM25 shRNA. c) NHEJ repair capacity of control or TRIM25 knockdown cells were subjected using a reporter assay. d-g) Immunoblot of USP25 in the RKO cells stably expressing control and USP25 shRNA. […] Statistical analysis was performed using t-test (a) or one-way ANOVA followed by a Turkey's multiple comparison test (c) or two-way ANOVA followed by a Turkey's multiple comparison test ([…]) .

For assay [3], the system named is RKO cells. In words: CCK8 survival assay, control, USP25 knockdown and SHLD2-depleted RKO cells. Conditions: 5-Fu (0, 0.1, 0.5, 1, 3 µM) or cisplatin (0, 0.1, 0.5, 1, 2, 5 µM). As for the experimental part: For long‐term proliferation, cells were seeded in triplicate in each well of 96‐well plates at a density of 1000 cells per well. After 24 h of culture, the cells were treated with the indicated doses of regents or peptides and incubated at 37 °C for 72 h. Subsequently, the medium was changed to a fresh medium containing cell counting kit‐8 solution (Dojindo, CK04), and the cells were placed in the incubator for an additional 1–2 h. The absorbance was measured at 450 nm using the SpectraMax M5 reader (Molecular Devices).
a) HEK293T cells stably expressing control or USP25 shRNA were untreated and treaded with etopside at the indicated time point. Cells were lysed and lysates was performed with the indicated antibodies. b-c) Representative foci images and quantification of RPA32 (b) and RAD51 (c) were obtained in U2OS cells stably expressing control or USP25 shRNA with or without IR treatment (2Gy). n>80 in each group. d) USP25 was knocked down in ER-AsiSI U2OS cells by shRNA, and cell lysates were analyzed using the indicated antibodies. e) Schematic representation of Taqman qPCR primer design for measurement of DSB% at AsiSI sites located on chromosome1(Chr.1). The primer pairs of DNA resection are across BamHI restriction sites are marked by red arrows. ER-AsiSI U2OS cells stably expressing control and USP25 shRNA were treated with 300 nM 4- hydroxytamoxifen (4-OHT) for 4 h or mock treated and genomic DNA was then extracted and digested with BamHI overnight. The percentages of ssDNA at various distances (364nt, 1754nt and 3564nt) were measured by qPCR. f-h) Control and USP25 knockdown RKO cells transfected short interfering RNAs (siRNA) against SHLD2 were subjected to survival assays for CCK8 assay in response to IR (0, 1,1.5,2,2.5,3Gy), 5-Fu (0, 0.1,0.5,1,3µM) or cisplatin(0, 0.1,0.5,1,2,5µM). Statistical analysis was performed using two-way ANOVA followed by a Turkey’s multiple comparison test (b,c,e,f,g,h) .

Assay [4] deals with SW480 cells. In words: CCK8 survival assay, TRIM25 knockdown SW480 cells. Conditions: ctrl vs USP25-depleted SW480, 5-Fu (0, 0.1, 0.5, 1, 3 µM), 72 h. From the text:
Figure 6 TRIM25 ubiquitinates and inactivates USP25. a) The mRNA expression levels of USP25 in human normal colon tissue samples (n = 41) and colorectal adenocarcinoma tissue samples (n = 286 COAD patients) from the Ualcan database. b) The mRNA expression level of USP25 in human colon cell lines and colon carcinoma cell lines through qPCR. c) The protein expression level of USP25 in human colon cell lines and colon carcinoma cell lines through western blot. d) Tissue microarray with representative IHC images showing USP25 protein expression in COAD tumors and adjacent tissues. […] Cell lysates were subjected to HA resin, and the immunoprecipitants were subsequently blotted using the indicated antibodies. f) The protein expression levels of USP25 were evaluated in HEK293T cells transfected with MYC‐TRIM25 or Flag‐HECTD3. g) The effect of cycloheximide (CHX) treatment on USP25 expression levels was analyzed in HEK293T cells transfected with TRIM25 for an indicated duration of time. h) In vivo ubiquitination assays were performed in control and TRIM25 knockdown cells, transfected with indicated plasmids, and treated with MG132 for 4 h before harvesting. […]
For long‐term proliferation, cells were seeded in triplicate in each well of 96‐well plates at a density of 1000 cells per well. […] The absorbance was measured at 450 nm using the SpectraMax M5 reader (Molecular Devices).

On to `O=c1[nH]cc(F)c(=O)[nH]1` [5‐Fu, 5‐fluorouracil], for which, in assay [1], the “USP25-MDC1 interaction after treatment” value is recorded as “increased following 5‐Fu or IR treatment”. Also, the “sensitization by USP25 knockdown, USP25-high cell lines” value in assay [2] was “sensitized the cells to IR, cisplatin, and 5‐Fu treatment”. Also, the “sensitization by USP25 knockdown” value in assay [3] (Figure S2f-h) was “sensitized cells to IR, 5‐Fu, and cisplatin treatment”. Besides, in assay [3] (SHLD2 siRNA), the “sensitization by USP25 knockdown in SHLD2-depleted cells” value is given as “didn't further lead cells to sensitize to these treatments”. Moreover, the “resistance by TRIM25 knockdown” value in assay [4] was “resistant to 5‐Fu treatment in ctrl cells but not USP25‐depleted SW480 cells”.
